Reference: PubChem BioAssay AID330 (DTP/NCI, 2004)
Values joined by “and” are separate entries in the source; they are usually repeats but may differ in a detail not shown here. Equal values may be shown once. Inconclusive results and toxic doses are left out. How the source made its calls: active means survival T/C of 150% or more; inactive means T/C below 125% in these data.

Tested on: P388 leukemia ip, CD2F1 mice, survival T/C
Assay: NCI In Vivo Anticancer Drug Screen. Data for tumor model P388 Leukemia (intraperitoneal) in CD2F1 (CDF1) mice
Settings: endpoint: median survival time, higher = longer survival
Outline: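 Mice carrying the transplanted tumor received test compound or vehicle. Survival was recorded in each group, and the value is the treated-group measurement divided by that of the vehicle-treated control group.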

[1] = dose: 60.0 mg/kg/injection, schedule: Q01DX005 (ip), vehicle: Klucel (hydroxypropylcellulose) (HPC)
[2] = dose: 120.0 mg/kg/injection, schedule: Q01DX005 (ip), vehicle: Klucel (hydroxypropylcellulose) (HPC)
[3] = dose: 240.0 mg/kg/injection, schedule: Q01DX005 (ip), vehicle: Klucel (hydroxypropylcellulose) (HPC)
[4] = dose: 50.0 mg/kg/injection, schedule: Q01DX005 (ip), vehicle: saline with Tween-80
[5] = dose: 100.0 mg/kg/injection, schedule: Q01DX005 (ip), vehicle: saline with Tween-80
[6] = dose: 200.0 mg/kg/injection, schedule: Q01DX005 (ip), vehicle: saline with Tween-80
[7] = dose: 12.5 mg/kg/injection, schedule: Q01DX009 (ip), vehicle: distilled water + Tween-80
[8] = dose: 25.0 mg/kg/injection, schedule: Q01DX009 (ip), vehicle: distilled water + Tween-80
[9] = dose: 50.0 mg/kg/injection, schedule: Q01DX009 (ip), vehicle: distilled water + Tween-80
[10] = dose: 100.0 mg/kg/injection, schedule: Q01DX009 (ip), vehicle: distilled water + Tween-80
[11] = dose: 200.0 mg/kg/injection, schedule: Q01DX009 (ip), vehicle: distilled water + Tween-80
[12] = dose: 50.0 mg/kg/injection, schedule: Q01DX005 (ip), vehicle: Klucel (hydroxypropylcellulose) (HPC)
[13] = dose: 100.0 mg/kg/injection, schedule: Q01DX005 (ip), vehicle: Klucel (hydroxypropylcellulose) (HPC)
[14] = dose: 100.0 mg/kg/injection, schedule: Q01DX009 (ip), vehicle: saline with Tween-80
[15] = dose: 100.0 mg/kg/injection, schedule: Q04DX003 (ip), vehicle: saline with Tween-80
[16] = dose: 200.0 mg/kg/injection, schedule: Q04DX003 (ip), vehicle: saline with Tween-80
[17] = dose: 400.0 mg/kg/injection, schedule: Q04DX003 (ip), vehicle: saline with Tween-80
[18] = dose: 200.0 mg/kg/injection, schedule: Q01DX009 (ip), vehicle: saline with Tween-80
[19] = dose: 400.0 mg/kg/injection, schedule: Q01DX009 (ip), vehicle: saline with Tween-80

Measured: T/C

O=N[O-].O=[N+]([O-])O.[Co+3].[NH2-].[NH2-].[NH2-].[NH2-].[NH2-]
inactive: dose: 12.5 mg/kg/injection, schedule: Q01DX001 (ip), vehicle: saline 97 % of control | dose: 25.0 mg/kg/injection, schedule: Q01DX001 (ip), vehicle: saline 110 % of control

COc1ccc(OC)c(NC(=O)SC(C)C)c1
inactive: [1] 93 % of control | [2] 96 % of control | [3] 92 % of control

NCCCCCCN1CCN(c2cccc(Cl)c2)CC1
inactive: dose: 50.0 mg/kg/injection, schedule: Q01DX009 (ip), vehicle: saline 103 % of control and 97 % of control | dose: 100.0 mg/kg/injection, schedule: Q01DX009 (ip), vehicle: saline 114 % of control and 98 % of control | dose: 200.0 mg/kg/injection, schedule: Q01DX009 (ip), vehicle: saline 123 % of control

C1CNC(SC2(SC3=NCCN3)SC3(NCCN3)S2)=N1
inactive: dose: 50.75 mg/kg/injection, schedule: Q01DX001 (ip), vehicle: saline 104 % of control | dose: 101.5 mg/kg/injection, schedule: Q01DX001 (ip), vehicle: saline 99 % of control | dose: 203.0 mg/kg/injection, schedule: Q01DX001 (ip), vehicle: saline 101 % of control

COc1ccc2c(c1O)CN1CCc3cc4c(cc3C1C2)OCO4 (stereo not drawn)
inactive: [4] 104 % of control | [5] 110 % of control | [6] 115 % of control

OCN(CO)c1nc(CCC(Br)(Br)Br)nc(N(CO)CO)n1
inactive: [7] 104 % of control | [8] 98 % of control | [9] 98 % of control | [10] 89 % of control | [11] 98 % of control

COc1ccc(C2CC3CCC(C2O)N3C)cc1 (stereo not drawn)
inactive: [12] 103 % of control | [13] 96 % of control

Cc1ccc(C(=O)C(CN(C)C)CN(C)C)cc1
inactive: dose: 3.12 mg/kg/injection, schedule: Q01DX009 (ip), vehicle: saline 101 % of control and 90 % of control | dose: 3.13 mg/kg/injection, schedule: Q01DX009 (ip), vehicle: saline 112 % of control | dose: 6.25 mg/kg/injection, schedule: Q01DX009 (ip), vehicle: saline 110 % of control [middle of 4 runs] | dose: 12.5 mg/kg/injection, schedule: Q01DX009 (ip), vehicle: saline 107 % of control and 118 % of control

CC1(C)O[P+]2(OC(C)(C)c3ccccc32)c2ccccc21
inactive: dose: 100.0 mg/kg/injection, schedule: Q04DX002 (ip), vehicle: Klucel (hydroxypropylcellulose) (HPC) 96 % of control | dose: 200.0 mg/kg/injection, schedule: Q04DX002 (ip), vehicle: Klucel (hydroxypropylcellulose) (HPC) 97 % of control | dose: 400.0 mg/kg/injection, schedule: Q04DX002 (ip), vehicle: Klucel (hydroxypropylcellulose) (HPC) 96 % of control

O=C1OCC23CC(=O)C(O)(c4oc(CO)cc(=O)c4O)C(CC12)O3 (stereo not drawn)
inactive: dose: 25.0 mg/kg/injection, schedule: Q01DX009 (ip), vehicle: saline with Tween-80 97 % of control | dose: 50.0 mg/kg/injection, schedule: Q01DX009 (ip), vehicle: saline with Tween-80 100 % of control | [14] 100 % of control

CCOc1ccn(CC(=O)c2ccc(Cl)s2)c(=O)n1
inactive: [15] 95 % of control | [16] 90 % of control | [17] 104 % of control

Nc1ncnc2ncn(CC(O)CN(CCO)CCO)c12 (stereo not drawn)
inactive: [1] 100 % of control | [2] 97 % of control | [3] 95 % of control

COc1ccc(/C=C/C(=O)c2ccccc(=O)c2O)cc1OC
inactive: dose: 25.0 mg/kg/injection, schedule: Q01DX005 (ip), vehicle: Klucel (hydroxypropylcellulose) (HPC) 99 % of control | [12] 100 % of control | [13] 114 % of control | dose: 200.0 mg/kg/injection, schedule: Q01DX005 (ip), vehicle: Klucel (hydroxypropylcellulose) (HPC) 113 % of control

O=c1[nH]/c(=C/c2ccc(CO)o2)c(=O)[nH]/c1=C\c1ccc(CO)o1
inactive: [7] 90 % of control | [8] 89 % of control | [9] 87 % of control | [10] 87 % of control | [11] 90 % of control

COC(=O)CCCCCC(O)C1CCC2OC(=O)CC21C (stereo not drawn)
inactive: [14] 118 % of control | [18] 100 % of control | [19] 100 % of control

CCN(CC)C(=S)S
inactive: dose: 100.0 mg/kg/injection, schedule: Q04DX003 (ip), vehicle: saline sonified 95 % of control | dose: 200.0 mg/kg/injection, schedule: Q04DX003 (ip), vehicle: saline sonified 100 % of control | dose: 400.0 mg/kg/injection, schedule: Q04DX003 (ip), vehicle: saline sonified 90 % of control

CC(Nc1ncnc2c1CCc1ccccc1-2)C(=O)O (stereo not drawn)
inactive: dose: 100.0 mg/kg/injection, schedule: Q04DX002 (ip), vehicle: saline with Tween-80 100 % of control | dose: 200.0 mg/kg/injection, schedule: Q04DX002 (ip), vehicle: saline with Tween-80 94 % of control

O=C1N(CCN2CCC3(CC2)OCCO3)CCN1c1cc(Cl)cc(Cl)c1
inactive: dose: 12.5 mg/kg/injection, schedule: Q01DX009 (ip), vehicle: water 104 % of control and 105 % of control and 113 % of control | dose: 25.0 mg/kg/injection, schedule: Q01DX009 (ip), vehicle: water 105 % of control and 112 % of control and 123 % of control | dose: 100.0 mg/kg/injection, schedule: Q01DX009 (ip), vehicle: water 105 % of control and 110 % of control | dose: 200.0 mg/kg/injection, schedule: Q01DX009 (ip), vehicle: water 108 % of control

CCOC(=O)c1cc(OCC)c(OCC)c(OCC)c1[N+](=O)[O-]
inactive: dose: 50.0 mg/kg/injection, schedule: Q01DX009 (ip), vehicle: saline + Tween-80 + alcohol 98 % of control | dose: 100.0 mg/kg/injection, schedule: Q01DX009 (ip), vehicle: saline + Tween-80 + alcohol 100 % of control | dose: 200.0 mg/kg/injection, schedule: Q01DX009 (ip), vehicle: saline + Tween-80 + alcohol 100 % of control

COc1ccc2c(c1)C(Cc1ccc(Oc3cc(CC4c5cc(OC)ccc5CC[N+]4(C)C)ccc3OC)cc1)[N+](C)(C)CC2 (stereo not drawn)
inactive: dose: 1.56 mg/kg/injection, schedule: Q04DX003 (ip), vehicle: water 106 % of control | dose: 3.13 mg/kg/injection, schedule: Q04DX003 (ip), vehicle: water 102 % of control

Cc1ccc(N(CC(=O)O)S(=O)(=O)c2ccccc2)c(C)c1Cc1cccc(Br)c1
inactive: [4] 101 % of control | [5] 104 % of control | [6] 101 % of control

CCCCCCCCCCCCCCCCS[As](C)C
inactive: [4] 92 % of control | [5] 100 % of control | [6] 96 % of control

CCOC(=O)c1ccc(NC(=S)Nc2ccc(C(=O)OCC)cc2)cc1
inactive: [14] 90 % of control | [18] 90 % of control | [19] 90 % of control

CC(C)(C)SC(=O)C[Si](C)(C)C
inactive: dose: 50.0 mg/kg/injection, schedule: Q04DX003 (ip), vehicle: saline with Tween-80 103 % of control and 105 % of control | [15] 107 % of control and 94 % of control | [16] 111 % of control and 118 % of control | [17] 110 % of control

O=C1C=C(C2=CC(=O)c3cccc(O)c3C2=O)C(=O)c2c(O)cccc21
inactive: dose: 6.25 mg/kg/injection, schedule: Q01DX009 (ip), vehicle: Klucel (hydroxypropylcellulose) (HPC) 115 % of control | dose: 12.5 mg/kg/injection, schedule: Q01DX009 (ip), vehicle: Klucel (hydroxypropylcellulose) (HPC) 115 % of control
